Results on four compounds are retold here after paper PMC7478952 (Pharmaceutical Research, 2020).

One data set relates to human DAAO. Also noted: method as in PMID 28780732. To be noted: cited from earlier work.
For a further data set, the system named is mouse DAAO. On the set-up: method as in PMID 28780732. To be noted: cited from earlier work.
In data set [1] the test system is DAAO. To be noted: human, taken from the mouse model. The procedure:
(§1) The translational modeling steps from the mouse PK/TO/PD model to that for humans are as follows; 1) PK model was replaced by the human PK model predicted from rats with single species allometric scaling approach(6). […] The differential equations of translated human PK/TO/PD model are shown in Eq. S12-S14, 2 and 5. […] The model parameters used for simulation are summarized in Supplementary table 2.
(§2) C1 is calculated by A1/V1. […] Imax represents maximum inhibitory effect of TO on Kout.

In data set [2] the target is T1, D-amino acid oxidase (DAAO) (Mus musculus, UniProt P18894).
T1 construct: from tissue
As to the kind of experiment: Cerebellum target occupancy of DAAO measured by displacement of tracer PGM019260 (mechanistic binding kinetics model). The class given is in vivo, C57BL/6 J mice. How it is done:
(§3) PGM019260 was formulated in 5% dimethyl sulfoxide and 95% v/v of 20% w/v 2-hydroxypropyl-β-cyclodextrin. […] After 2, 4, 6, 8, 10 and 24 h from oral administration, PGM019260 at 60 μg/kg was administered by intravenous route (i.v.) with a dose volume of 1 mL/kg (n = 4). Mice were sacrificed 20 min after tracer dosing. Blood was collected into heparin containing tubes and plasma was separated.
(§4) The grand mean value of tracer concentration in vehicle treatment group calculated from all the time points (2, 4, 6, 8, 10 and 24 h after vehicle treatment) was used as the baseline of tracer concentration across all the time points. […] The differential equations of PK/TO/PD model are shown below (Eqs. 1, 2 and 5). […] 4 and 6, respectively.1 dAp/dt=−CLp/Vp·Ap 2 dTO/dt=Kon·BRmax−TO·Cp−Koff·TO 3 Tracer concentration=BLtr·1−TO 4 In vivoKd=Koff/Kon×fp 5 dPD/dt=Kin−Kout·BRmax−Imax·TO 6 Kin=BL·Kout
(§5) The convergence criterion was three significant digits.

For data set [3], the target named is T2, breast cancer resistance protein (BCRP) (Homo sapiens, UniProt Q9UNQ0).
T2 sequence (Q9UNQ0 1-655): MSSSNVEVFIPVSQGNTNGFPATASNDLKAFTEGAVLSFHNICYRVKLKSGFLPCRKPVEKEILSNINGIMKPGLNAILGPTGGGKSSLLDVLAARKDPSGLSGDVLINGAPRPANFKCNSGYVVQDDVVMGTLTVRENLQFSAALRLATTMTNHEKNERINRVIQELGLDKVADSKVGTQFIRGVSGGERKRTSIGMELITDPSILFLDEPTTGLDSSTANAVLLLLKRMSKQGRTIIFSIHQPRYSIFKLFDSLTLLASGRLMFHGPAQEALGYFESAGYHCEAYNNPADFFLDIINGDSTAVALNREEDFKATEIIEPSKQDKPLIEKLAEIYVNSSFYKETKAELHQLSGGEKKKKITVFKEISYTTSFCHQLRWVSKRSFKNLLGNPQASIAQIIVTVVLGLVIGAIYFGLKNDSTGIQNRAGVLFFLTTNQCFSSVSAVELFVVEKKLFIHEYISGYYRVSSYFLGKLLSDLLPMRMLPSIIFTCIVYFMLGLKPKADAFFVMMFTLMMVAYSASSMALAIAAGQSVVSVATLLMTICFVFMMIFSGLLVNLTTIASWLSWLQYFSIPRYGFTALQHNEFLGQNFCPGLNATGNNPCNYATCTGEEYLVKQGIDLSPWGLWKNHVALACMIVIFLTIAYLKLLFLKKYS
As to the kind of experiment: BCRP substrate assessment. The class given is in vitro ADME.

Another data set can be described thus: in vivo. Particulars: mouse. How it is done: Mice were sacrificed (n = 2) 0.25, 0.5, 1, 2, 4, 8 and 24 h after p.o. dosing. Blood was collected with heparinized syringe and plasma was separated. Three separate brain regions (cerebellum, front and back part of cerebrum) were isolated. The radioactivity in plasma and brain regions was measured by liquid scintillation counter. […] Plasma and whole brain homogenate samples were processed for metabolite profiling by HPLC with on-line radioisotope detector or liquid scintillation counter.

Data set [4] in a line: Free fraction of TAK-831 in mouse plasma. To be noted: read-out: fp free fraction in mouse plasma. The data set is classed as in vitro ADME.
In data set [5] the test system is cerebellar-based associative learning. To be noted: mice; cited from earlier work.
Data set [6] in a line: Free fraction of TAK-831 in human plasma. The data set is classed as in vitro ADME. Particulars: read-out: fp,human free fraction in plasma.
Data set [7] in a line: Translated human PK model (single species allometric scaling from rats). The procedure:
as §1, §2

Data set [8] is described as follows: Plasma PK of TAK-831 after single oral administration in mice (target occupancy study, 1-compartment model). The data set is classed as in vivo, C57BL/6 J mice. The procedure: as §3, §4, §5
A further data set concerns the target P-glycoprotein (P-gp) (Homo sapiens, UniProt P08183). As to the kind of experiment: P-glycoprotein substrate assessment. The class given is in vitro ADME.
For another data set, the system named is novel object recognition. Particulars: cited from earlier work.
Data set [9] relates to D-serine in cerebellum. To be noted: cited from earlier work.
For data set [10], the system named is D-serine in cerebellum. Nature of the data set: Translated human PD model (D-serine in cerebellum). Particulars: taken from the mouse model. How it is done: as §1, §2
The target of data set [11] is DAAO (Homo sapiens, UniProt P14920). As to the kind of experiment: Inhibition of DAAO activity in vitro. The class given is biochemical.
The subject of data set [12] is social interaction (model of negative symptoms). To be noted: Balb/c mice; cited from earlier work.
Data set [13] relates to DAAO. Also noted: method as in PMID 28780732. Particulars: pre-treatment; cited from earlier work.

Molecules are shown by their SMILES.

T1 sequence (P18894 whole entry): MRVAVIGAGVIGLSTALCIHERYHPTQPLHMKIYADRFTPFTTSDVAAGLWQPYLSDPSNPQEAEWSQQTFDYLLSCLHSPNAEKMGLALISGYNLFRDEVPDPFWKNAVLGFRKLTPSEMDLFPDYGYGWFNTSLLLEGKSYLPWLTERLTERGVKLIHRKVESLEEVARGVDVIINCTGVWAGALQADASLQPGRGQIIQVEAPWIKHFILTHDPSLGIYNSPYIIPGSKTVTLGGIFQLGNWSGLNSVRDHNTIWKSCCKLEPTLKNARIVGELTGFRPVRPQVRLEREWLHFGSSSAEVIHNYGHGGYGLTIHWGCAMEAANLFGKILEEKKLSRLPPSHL
Chain of DAAO (Homo sapiens, UniProt P14920) (P14920 whole entry, species assumed): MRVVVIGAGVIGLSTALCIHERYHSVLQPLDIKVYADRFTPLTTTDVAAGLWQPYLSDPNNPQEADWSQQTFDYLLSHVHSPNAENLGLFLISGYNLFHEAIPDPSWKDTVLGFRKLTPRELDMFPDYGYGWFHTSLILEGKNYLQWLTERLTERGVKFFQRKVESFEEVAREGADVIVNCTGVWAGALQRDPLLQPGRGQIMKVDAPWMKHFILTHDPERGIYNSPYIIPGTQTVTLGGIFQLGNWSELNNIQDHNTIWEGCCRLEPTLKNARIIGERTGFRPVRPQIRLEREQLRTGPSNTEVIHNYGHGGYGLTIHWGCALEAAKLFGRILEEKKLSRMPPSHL
Chain of P-glycoprotein (P-gp) (P08183 whole entry): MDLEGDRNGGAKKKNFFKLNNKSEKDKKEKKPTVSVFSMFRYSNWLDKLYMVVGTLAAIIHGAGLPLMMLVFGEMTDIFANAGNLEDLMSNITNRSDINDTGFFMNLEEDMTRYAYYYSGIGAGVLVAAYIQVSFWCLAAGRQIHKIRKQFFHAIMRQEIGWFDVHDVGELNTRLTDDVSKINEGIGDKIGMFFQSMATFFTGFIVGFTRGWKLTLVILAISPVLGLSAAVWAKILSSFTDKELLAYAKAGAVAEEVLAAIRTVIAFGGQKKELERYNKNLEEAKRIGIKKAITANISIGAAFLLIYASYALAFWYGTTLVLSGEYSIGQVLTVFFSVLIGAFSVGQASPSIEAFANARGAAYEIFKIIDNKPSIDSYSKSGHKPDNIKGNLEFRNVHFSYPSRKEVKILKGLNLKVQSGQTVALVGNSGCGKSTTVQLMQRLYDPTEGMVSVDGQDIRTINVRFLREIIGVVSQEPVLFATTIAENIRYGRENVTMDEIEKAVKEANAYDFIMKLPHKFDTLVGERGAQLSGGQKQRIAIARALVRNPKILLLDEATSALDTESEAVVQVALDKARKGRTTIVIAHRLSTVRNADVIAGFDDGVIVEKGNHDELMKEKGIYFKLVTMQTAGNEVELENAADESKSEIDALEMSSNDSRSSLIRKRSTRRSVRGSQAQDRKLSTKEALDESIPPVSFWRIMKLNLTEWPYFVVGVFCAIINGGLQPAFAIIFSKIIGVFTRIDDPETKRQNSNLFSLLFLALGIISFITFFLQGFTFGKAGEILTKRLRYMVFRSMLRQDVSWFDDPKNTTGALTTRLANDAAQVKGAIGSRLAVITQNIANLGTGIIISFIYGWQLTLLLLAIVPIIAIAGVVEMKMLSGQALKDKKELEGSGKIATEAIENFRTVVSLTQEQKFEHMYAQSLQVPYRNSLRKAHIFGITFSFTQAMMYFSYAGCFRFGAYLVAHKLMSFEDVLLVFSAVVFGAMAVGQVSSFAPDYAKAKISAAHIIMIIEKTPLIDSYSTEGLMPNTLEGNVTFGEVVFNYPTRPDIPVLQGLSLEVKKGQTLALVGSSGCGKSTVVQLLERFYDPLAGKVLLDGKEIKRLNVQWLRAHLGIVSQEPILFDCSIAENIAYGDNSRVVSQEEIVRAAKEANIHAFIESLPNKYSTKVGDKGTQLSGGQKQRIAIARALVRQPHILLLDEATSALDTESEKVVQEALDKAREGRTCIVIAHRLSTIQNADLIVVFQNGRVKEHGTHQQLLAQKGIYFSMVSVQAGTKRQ

On to `COc1ccc(CSc2c[nH]c(=O)c(O)c2)cn1` [PGM019260], for which the “DAAO inhibition in human enzyme in vitro” value with human DAAO was “highly potent DAAO inhibition”. Also, the “DAAO inhibition in mouse enzyme in vitro” value with mouse DAAO was “highly potent DAAO inhibition”.
As to `O=c1[nH]nc(CCc2ccc(C(F)(F)F)cc2)cc1O` [TAK-831, 4-hydroxy-6-{2-[4-(trifluoromethyl)phenyl]ethyl}pyridazin-3(2H)-one], in the data set on DAAO [1], the “BRmax maximum binding ratio” value turned out to be 0.987. Moreover, the Kd (usually the constant that tells how readily two partners part at equilibrium) in data set [2] was 0.809 nM. For the same compound, the “fold by which in vivo Kd is lower than in vitro IC50” value in [2] (in vivo Kd vs in vitro IC50) was “about 8 fold”. In addition, the “Kon association rate constant” value in [2] (mice cerebellum, against total plasma concentration, model estimate) is given as 0.0372 mL/ng/h. Besides, in data set [2] (mice cerebellum, model estimate), the “BRmax maximum binding ratio” value was 0.987. Further, in data set [2] (mice, once daily multiple doses, data not shown), the “accumulation of PK or TO after once daily multiple doses (empirical, separate studies)” value is given as “no accumulation was observed”. The “TAK-831 dosage at which maximum decline of tracer concentration was observed” value in data set [2] (mice, single p.o., tracer PGM019260 in cerebellum) is recorded as ≥ 3 mg/kg. For the same compound, the koff (usually the first-order rate constant of dissociation) in data set [2] (mouse, read-out: Koff dissociation rate constant) was 3.14e-05 s⁻¹. Moreover, the “substrate of breast cancer resistance protein (BCRP)” value in data set [3] was “neither a substrate”. Also, in “in vivo” (C57BL/6 J), the Kp was found to be 0.181, the fraction unbound came to 0.425 and the “time by which equilibrium across BBB was reached” value is recorded as ≤ 0.25 h. For the same compound, in the data set “in vivo”, the Kp uu worked out at 1. Besides, the fraction unbound in data set [4] worked out at 0.077. In addition, in data set [5], the “acquisition of the conditioned response” value is “improvement in the acquisition of the conditioned response” and the scopolamine induced deficit result was “reversing the scopolamine induced deficit”. Further, the fraction unbound in data set [6] worked out at 0.0067. For the same compound, the “Ka absorption rate constant” value in data set [7] came out at 0.218 h⁻¹. Moreover, in data set [8] (C57BL/6 J, mouse, plasma, po, single p.o. 0.3-10 mg/kg, model estimate, read-out: CLp oral clearance (converted)), the CL/F was 85.7 mL/min/kg. In data set [8] (C57BL/6 J, mouse, plasma, po, single p.o., first sampling at 2 h), the Tmax (commonly the time from dosing to the highest level) was ≤ 2 h. Moreover, in [8] (p.o. dose range 0.3 to 10 mg/kg), the “dose dependency of plasma exposure” value is recorded as “increased almost dose-proportionally”. In addition, the “Vp apparent volume of distribution” value in data set [8] (single p.o. 0.3-10 mg/kg, model estimate) is recorded as 35.7 L/kg. Further, on P-glycoprotein (P-gp), the “substrate of P-glycoprotein (P-gp)” value is “neither a substrate”. For the same compound, in the data set on novel object recognition (acute oral dose in mice), the “dose at which efficacy was observed” value was ≥ 0.3 mg/kg. Also, in the data set with novel object recognition (range of acute and chronic doses in mice), the “identification of the novel object” value is recorded as “able to identify the novel object”. The “D-serine levels in the cerebellum of normal mice” value with D-serine in cerebellum [9] is on record as “increase D-serine levels”. Further, in the data set on D-serine in cerebellum [10], the “Imax maximum inhibitory effect” value was determined as 0.877. The “in vitro IC50 values on enzymatic activity, mice vs humans” value on DAAO [11] (comparison between mouse and human enzyme) was “comparable between mice and humans”. For the same compound, the IC50 at DAAO [11] (read-out: 50% inhibitory concentration (IC50) of DAAO activity in vitro (converted)) is 6.33 nM. In addition, the “efficacy in social interaction model” value in data set [12] was “efficacious”.
In the case of `O=c1[nH]nc(CCc2ccc([14C](F)(F)F)cc2)cc1O` [[^14C]TAK-831], in “in vivo”, the “dose dependency of plasma exposure of radioactivity” value is listed as “increased almost dose-proportionally”.
On to `O=C([O-])c1ccccc1.[Na+]` [sodium benzoate], for which the “displacement of PGM019260 in the mouse cerebellum” value in the data set with DAAO [13] is “dose dependent displacement”.
